Values of other authors as cited in patent publication US20140234405A1 (priority 2013, published 2014).
No end group written: not given here.

Tests used:
[1] = test system: gastrin; settings: 90 mg/day for 6 years or greater; cited from earlier work
[2] = test system: type 2 diabetes; settings: 12 weeks, cited from earlier work
[3] = test system: beta cell mass; settings: after infusion of gastrin in rats; cited from earlier work
[4] = test system: human pancreatic ductal tissue; settings: in vitro, without epidermal growth factor; cited from earlier work

## Cc1c(OCC(F)(F)F)ccnc1C[S+]([O-])c1nc2ccccc2[nH]1 (stereo not shown) [Lansoprazole, 1H-Benzimidazole,2-[[[3-methyl-4-(2,2,2-trifluoroethoxy)-2-pyridinyl]methyl]sulfinyl]-2-[[[3-Methyl-4-(2,2,2-trifluoroethoxy)-2-pyridyl]-methyl]sulfinyl]benzimidazole]
[1]
  gastrin levels relative to normal: ~7 fold
  safety profile: sustained safety profile

## COc1ccc2nc([S@@+]([O-])Cc3ncc(C)c(OC)c3C)[nH]c2c1 [esomeprazole]
[2]; patients with type 2 diabetes
  insulin secretion, glycaemic control, cardiovascular disease biomarkers: did not improve
[2]; control group had 16.3% reduction
  change in insulin AUC: no decline in insulin AUC
[2]; 20 type 2 diabetes patients, 40 mg
  increase in area under the curve (AUC) of gastrin: 9 fold

## gastrin: gastrointestinal hormone demonstrated to result in new beta cell formation (QGPWLEEEEEAYGWMDF; ends and bridges not checked; UniProt P01350 76-92, looked up)
[3]
  beta cell mass: doubling beta cell mass
[4]
  beta cell neogenesis from human pancreatic ductal tissue: induce beta cell neogenesis
